Consider seven compounds from patent publication US12521377B2, “Uses of (+)-B-dihydrotetrabenazine in methods of treating movement disorder” (ADEPTIO PHARMACEUTICALS LIMITED, priority 2017, dated 2026).

“Also recorded” adds a separate entry of the source.

The nature of series [1]: Pharmacokinetic study, single-dose oral administration of tetrabenazine 25 mg to healthy adult male volunteers: plasma levels of tetrabenazine and DHTBZ isomers. Format: in vivo, human. Conditions: for Kel: N=08, unit not given; for status as metabolite of tetrabenazine in humans: single and multiple dose tetrabenazine 25 mg, Tables 1 and 2. As to the method:
(§1) A pharmacokinetic study was carried out in healthy adult male volunteers under fasting conditions at a dose of single and multiple oral administration of 25 mg tablets once a day to ascertain the plasma levels of +/−α and +/−β dihydro-tetrabenazine.
Table 1 summarises the pharmacokinetic data obtained following single-dose oral administration of tetrabenazine at a dose level of 25 mg (fasting, N=08).

The target of series [2] is Chromaffin Granule Monoamine Transporter (Bos taurus, UniProt Q27963). The settings on record: cited from earlier work.
A further series concerns male CD rats. Nature of the series: Amphetamine induced locomotor activity and stereotypies in the open field arena. Format: in vivo, rat. The settings on record: amphetamine at t=30 min; for normalised total distance travelled, compared to vehicle-amphetamine group / normalised total stereotypic behaviour, compared to vehicle-amphetamine group: listed as (+)-β-DHTBZ. On the procedure: Resulting locomotor activity was evaluated in 3 min bins and as a total over the testing period. […] Resulting stereotypic activity was evaluated in 3 min bins and as a total over the testing period.

For series [3] the following is noted: rat brain, stereochemistry not disclosed; cited from earlier work.
Series [4] can be described thus: Pharmacokinetic study, multiple-dose oral administration of tetrabenazine 25 mg once a day to healthy adult male volunteers: plasma levels. Format: in vivo. The settings on record: multiple-dose oral tetrabenazine 25 mg once a day, fasting, N=07, human plasma. On the procedure:
as §1
Table 2 summarises the pharmacokinetic data obtained following multiple-dose oral administration of tetrabenazine at a dose level of 25 mg (fasting, N=07).

Setting [5] is: single-dose oral tetrabenazine 25 mg, fasting.
The mark [6] stands for this setting: single-dose oral tetrabenazine 25 mg, fasting, N=08, human plasma.

Sequence of Chromaffin Granule Monoamine Transporter (Q27963 whole entry): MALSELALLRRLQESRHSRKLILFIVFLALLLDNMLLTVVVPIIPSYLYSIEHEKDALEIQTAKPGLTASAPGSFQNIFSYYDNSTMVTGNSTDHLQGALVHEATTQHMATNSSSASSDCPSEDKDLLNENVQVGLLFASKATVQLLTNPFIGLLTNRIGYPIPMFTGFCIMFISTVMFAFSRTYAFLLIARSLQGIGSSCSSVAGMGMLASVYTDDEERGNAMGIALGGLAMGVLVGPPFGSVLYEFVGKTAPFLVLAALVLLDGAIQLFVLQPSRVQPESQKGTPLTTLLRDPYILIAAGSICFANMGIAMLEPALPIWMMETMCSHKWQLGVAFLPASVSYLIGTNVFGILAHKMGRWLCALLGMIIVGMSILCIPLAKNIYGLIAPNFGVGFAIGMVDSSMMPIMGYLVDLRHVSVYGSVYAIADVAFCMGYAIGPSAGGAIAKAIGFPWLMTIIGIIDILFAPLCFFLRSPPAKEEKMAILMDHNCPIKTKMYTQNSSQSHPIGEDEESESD

For `COc1cc2c(cc1OC)C1CC(=O)C(CC(C)C)CN1CC2` (racemic) [Tetrabenazine, 1,3,4,6,7,11b-hexahydro-9,10-dimethoxy-3-(2-methylpropyl)-2H-benzo(a)quinolizin-2-one], in series [1] (setting [5]), the Kel was 0.19.

On to `COc1cc2c(cc1OC)[C@H]1C[C@@H](O)[C@H](CC(C)C)CN1CC2` [(+)-α-dihydrotetrabenazine], for which, in series [1], the “status as metabolite of tetrabenazine in humans” value (“status as metabolite” below) is listed as “minor metabolites”. Besides, the Kel in series [1] (setting [5]) is 0.17. For the same compound, the “more active than the (+)-β-isomer” value in series [2] (earlier findings, as worded) was 3- to 4 times.

On to α-dihydrotetrabenazine, for which the “higher affinity than the β-isomer” value in series [2] (racemic α- versus racemic β-dihydrotetrabenazine, in vitro) is reported as 3- to 4 fold.

Turning to `COc1cc2c(cc1OC)[C@H]1C[C@H](O)[C@H](CC(C)C)CN1CC2` [(+)-β-dihydrotetrabenazine, (S,R,R)-3-isobutyl-9,10-dimethyloxy-1,3,4,5,7,11b-hexahydro-2H-pyrido[2,1-a]isoquinolin-2-ol], the “status as metabolite” value in series [1] is “major metabolites; also recorded: main metabolites”. In addition, the Kel in series [1] (setting [5]) is recorded as 0.13. Besides, in the series with male CD rats (2.5 mg/kg at t=0 min), the “normalised total stereotypic behaviour, compared to vehicle-vehicle group” value is “significantly different”; the “normalised total distance travelled, compared to vehicle-amphetamine group” value is “lower locomotor activity”; the “normalised total stereotypic behaviour, compared to vehicle-amphetamine group” value was “significantly different; also recorded: reduced stereotypic behaviour”. In the series on male CD rats (5 mg/kg at t=0 min), the “normalised total stereotypic behaviour, compared to vehicle-vehicle group” value was “significantly different”; the “normalised total distance travelled, compared to vehicle-amphetamine group” value is on record as “lower locomotor activity”; the “normalised total stereotypic behaviour, compared to vehicle-amphetamine group” value is given as “significantly different; also recorded: reduced stereotypic behaviour”.

For the compound `COc1cc2c(cc1OC)[C@@H]1C[C@H](O)[C@@H](CC(C)C)CN1CC2` [(−)-α-dihydrotetrabenazine], the “status as metabolite” value in series [1] is given as “major metabolites; also recorded: main metabolites”. The same compound yielded a Kel in series [1] (setting [5]) of 0.10.

In the case of `COc1cc2c(cc1OC)C1CC(O)C(CC(C)C)CN1CC2` (stereo not shown) [dihydrotetrabenazine, 2-hydroxy-3-(2-methylpropyl)-1,3,4,6,7,11b-hexahydro-9,10-dimethoxy-benzo(a)quinolizine], in series [3], the “crossing of the blood-brain barrier” value is given as “able to cross the blood-brain barrier”.

`COc1cc2c(cc1OC)[C@@H]1C[C@@H](O)[C@@H](CC(C)C)CN1CC2` [(−)-β-dihydrotetrabenazine]: the “status as metabolite” value in series [1] is given as “minor metabolites”. In addition, the Cmax in series [1] (single dose study, tetrabenazine administered to adult male humans) turned out to be 5.28 ng/mL. In addition, the “area under the curve (AUC)” value in series [1] (single dose study, tetrabenazine administered to adult male humans (unit not given)) was 16.28. Besides, in series [1] (setting [6]), the “AUC(0-inf.)” value worked out at 18.77 ng·h/mL, the “AUC(0-t)” value was 16.28 ng·h/mL, the Cmax is given as 5.28 ng/mL and the “Extrapolated AUC” value is reported as 17.66%. Moreover, in series [1] (setting [6]), the “Half-life (Mean)” value was 12.98 h and the “Tmax Mean” value was determined as 1.03 h. Besides, in series [1] (setting [5]), the Kel is listed as 0.45. For the same compound, in series [4], the “AUC(0-t)” value amounted to 25.17 ng·h/mL, the Cmaxss came to 7.78 ng/mL, the Cminss came to 0.16 ng/mL and the Ctss is on record as 0.57 ng/mL. In series [4], the “Tmaxss Mean” value stood at 97.11 h.
